Laboratory results: patent US9226904B2, “Pharmacological treatment of Parkinson's disease” (The United States of America as Represented by the …, priority 2006, dated 2016)

Legend:
ΔFosB = experiment: Immunoblot of ΔFosB in denervated striatum of unilateral 6-OHDA-lesioned rats; type: in vivo, rat; conditions: once daily for 15 days; L-DOPA 25 mg/kg plus 6.25 mg/kg benserazide; SKF 38393 1 mg/kg; R(+)-8-OHDPAT 0.3 mg/kg concomitant with SKF 38393; FIG. 9; p<0.05
Procedure: To test whether a drug-related rise in ΔFosB contributes to dyskinesias elicited by repeated L-DOPA treatment, ΔFosB levels were assessed by immunoblotting. FIG. 8 provides an image of a typical blot. […] Thus a significant target of the treatments of the present invention is contemplated to be ΔFosB in the striatum. Even so, knowledge of the mechanism(s) is not necessary in order to make and use the present invention.

[1] = test system: hemi-lesioned 6-OHDA-treated rat; experiment: Rotational activity (contralateral turns) in hemi-lesioned 6-OHDA-treated rat model of Parkinson's disease; type: in vivo; conditions: for direction of turning elicited: daily s.c. dosing, R(+)-8-OHDPAT 0.3 mg/kg; for rotational response on day 15 of once daily administration: SKF 38393 0.1, 0.3 or 1.0 mg/kg with vehicle or with R(+)-8-OHDPAT 0.3 mg/kg, once daily 15 days, FIG. 10
[2] = coadministration with levodopa; Bibbiani et al., Neurology 2001; cited from earlier work
[3] = test system: hemi-lesioned 6-OHDA-treated rat; experiment: Rotational activity (contralateral turns) in hemi-lesioned 6-OHDA-treated rat model of Parkinson's disease; type: in vivo; conditions: for contralateral turning after D1 agonist SKF 38393 (0.1 mg/kg) on test day: 14 days R(+)-8-OHDPAT 0.3 mg/kg or vehicle, then same plus SKF 38393 0.1 mg/kg on test day, observed 3 hr, FIG. 2, p<0.005
Procedure: Rats were rendered parkinsonian on one side of the brain by unilateral destruction of nigrostriatal dopamine neurons using the selective neurotoxin 6-OHDA and stereotaxic procedures. Animals were allowed to recover for at least 2 weeks following this procedure. Animals were then screened for efficacy of the lesion by subcutaneous injection of L-DOPA (25 mg/kg) plus the decarboxylase inhibitor benserazide (6.25 mg/kg) followed by assessment of motor activity.
Anti-parkinsonian action in the hemi-lesioned 6-OHDA-treated rat model was assessed by the elicitation of rotational activity to the side opposite the lesioned hemisphere (contralateral turns) following drug treatment. The number of contralateral turns was assessed by videotape recording of animals and counting the number of turns.
One group (controls) received a daily subcutaneous injection of vehicle (0.9% saline containing 0.1 mg/kg ascorbate; 1 ml/kg) for 14 days and the other group (8-OHDPAT) received a daily subcutaneous injection of R(+)-8-OHDPAT (0.3 mg/kg in 1 ml/kg volume) for 14 days. Beginning on day 15, both groups of rats were tested for motor activity and dyskinetic activity in response to the D1 receptor partial agonist SKF 38393 or the D2 receptor agonist quinpirole. Such testing was carried out in a randomized fashion with different doses of dopamine agonist being tested every 4th day (e.g. 3 days between dopamine agonist administration). Throughout this testing phase the control group continued to receive daily injection of vehicle and the 8-OHDPAT group continued to receive daily injection of 0.3 mg/kg R(+)-8-OHDPAT. On days when dopamine agonists were tested the vehicle or R(+)-8-OHDPAT was administered simultaneously with the dopamine agonist.

[4] = test system: hemi-lesioned 6-OHDA-treated rat; experiment: Observer assessment of motor dyskinesias (dyskinesia index) during rotational test; type: in vivo; conditions: repeated R(+)-8-OHDPAT administration, 3 hr rotational test
Procedure: Observer assessment of motor dyskinesias was carried out be viewing the videotaped recording of rats during testing for rotational activity. A dyskinesia score was generated at 10 minute intervals throughout the course of the rotational test (generally 3 hr). Dyskinesia scores were based on the following scale: 0-no evidence of abnormal activity; 1 mild, intermittent forelimb dyskinesia; 2-severe, more persistent forelimb dyskinesia associated with animal directing activity toward forelimb; 3-severe limb and axial dyskinesia associated with loss of balance and consistent “barrel-rolling” activity. The dyskinesia scores that were obtained were averaged to generate a dyskinesia index.
The experiments described in this example were conducted as described above. A dyskinesia index for each animal was determined during a 3 hr rotational test.

[5] = L-DOPA 10 mg/kg + 6.25 mg/kg benserazide, FIG. 1

Row | SMILES | ΔFosB in the denervated striatum (ΔFosB) | direction of turning elicited [1, 5] | contralateral turning after D1 agonist SKF 38393 (0.1 mg/kg) on test day [3] | rotational response on day 15 of once daily administration [1] | further results
1 | N[C@@H](Cc1ccc(O)c(O)c1)C(=O)O [L-DOPA, levodopa] | significant increase | almost exclusively contralateral turning | – | – | contralateral turning on Day 15 relative to Day 1 ([1]; repeated daily s.c. dosing, L-DOPA 10 mg/kg + 6.25 mg/kg benserazide, R(+)-8-OHDPAT 0.3 mg/kg where given, FIG. 1): approximately 3 fold; coordination of the turning response (observed, not quantified) ([1]; upon repeated daily administration, L-DOPA 10 mg/kg + benserazide, R(+)-8-OHDPAT 0.3 mg/kg where given): progressively more uncoordinated
2 | Fc1ccc(-c2cncc(CNC[C@H]3CCc4ccccc4O3)c2)cc1 [sarizotan] | – | – | – | – | motor complications of levodopa treatment [2]: reduced motor complications
3 | COc1ccccc1N1CCN(CCN(C(=O)C2CCCCC2)c2ccccn2)CC1 [WAY 100635] | – | – | – | – | effect of 5-HT1A antagonist pretreatment on R(+)-8-OHDPAT-facilitated anti-parkinsonian action of SKF 38393 ([3]; WAY 100635 0.1 mg/kg on test day prior to R(+)-8-OHDPAT 0.3 mg/kg plus SKF 38393 0.3 mg/kg, at least 14 days daily R(+)-8-OHDPAT, FIG. 7): blocked the facilitating effects
4 | CCCN(CCC)C1CCc2cccc(O)c2C1 (stereo not drawn) [R(+)-8-OHDPAT, 8-hydroxy-2-(di-n-propylamino)tetralin] | prevents the D1 agonist-induced rise in ΔFosB | ipsilateral turning could be elicited | pronounced contralateral turning | significantly greater contralateral turning response | anti-parkinsonian action (contralateral turning), chronic and concomitant versus acute administration ([3]; 14 day pretreatment with R(+)-8-OHDPAT 0.3 mg/kg plus concomitant R(+)-8-OHDPAT+SKF 38393 0.3 mg/kg on test day, FIG. 4, p<0.001): significant anti-parkinsonian action greater than all other treatment groups; contralateral turning after D2 agonist quinpirole (0.05 mg/kg) on test day ([3]; 14 days R(+)-8-OHDPAT 0.3 mg/kg, then R(+)-8-OHDPAT plus quinpirole 0.05 mg/kg on test day, vs vehicle plus quinpirole, 3 hr, FIG. 3, p<0.001): significantly greater contralateral turning; dyskinetic behavior (dyskinesia index) elicited by SKF 38393 (3.0 mg/kg) ([4]; FIG. 5): reduced dyskinetic behavior; dyskinetic behavior (dyskinesia index) elicited by quinpirole (0.05 mg/kg) ([4]; FIG. 6): reduced dyskinetic behavior; rotational response, pre-screened (primed) versus non-pre-screened (unprimed) rats ([1]; 15 days once daily R(+)-8-OHDPAT 0.3 mg/kg plus SKF 38393 0.3 mg/kg, FIG. 11): no significant difference
5 | Oc1cc2c(cc1O)C(c1ccccc1)CNCC2 (stereo not drawn) [SKF 38393] | significant increase | – | no contralateral turning | little net contralateral turning | –
